# Experimental data taken from patent US20250144067A1, “PERSONALIZED STARVATION THERAPY FOR CANCER” (Faeth Therapeutics, Inc., priority 2021, published 2025).
# Read-outs that look alike come from different tables or passages of the source. Ends that are not written are not given here.
# Tests used:
# [1] = system: NCI-H292 lung cancer cells; assay: FDA drug screening, complete media vs cholesterol-free media without statin (TABLE 1); type: cell-based, human
# [2] = system: NCI-H292 lung cancer cells; assay: FDA drug screening, complete media vs cholesterol-free media with simvastatin (TABLE 2); type: cell-based, human
# [3] = Complete minus Cholesterol-free, >0 enhanced anti-cancer activity, about 0 neutral, <0 antagonist
# [4] = NCI-H292 cells, cholesterol-free media without statin, FDA drug library screen
# [5] = NCI-H292 cells, complete media, FDA drug library screen
# [6] = NCI-H292 cells, cholesterol-free media with simvastatin 0.04 μM, cell growth value in FDA drug screen
# [7] = NCI-H292 cells, complete media, cell growth value in FDA drug screen
# [8] = complete media minus cholesterol-free media + simvastatin, >0 enhanced anti-cancer activity, about 0 neutral, <0 antagonist
# [9] = Complete minus Cholesterol-free, […]
# [10] = NCI-H292 cells, cholesterol-free media with simvastatin 0.04 μM, FDA drug library screen (TABLE 2)
# [11] = NCI-H292 cells, complete media, FDA drug library screen (TABLE 2)
# [12] = complete media minus cholesterol-free media + simvastatin (0.04 μM), […]
# [13] = complete vs cholesterol-free media, >0 enhanced anti-cancer activity, about 0 neutral, <0 antagonist
# [14] = NCI-H292 cells, FDA drug library screen, complete media
# [15] = NCI-H292 cells, cholesterol-free media without statin
# [16] = complete vs cholesterol-free media, […]
# [17] = NCI-H292 cells, cholesterol-free media with simvastatin 0.04 μM, […]
# [18] = NCI-H292 cells, complete media, […]
# [19] = complete media minus cholesterol-free media + simvastatin, […]
# [20] = NCI-H292 cells, FDA library drug in cholesterol-free media with simvastatin 0.04 μM
# [21] = NCI-H292 cells, FDA library drug in complete media
# [22] = complete media vs cholesterol-free media + simvastatin (0.04 μM), >0 enhanced anti-cancer activity, about 0 neutral, <0 antagonist
# [23] = NCI-H292 cells, FDA drug library screen, cholesterol-free media with simvastatin 0.04 μM
# [24] = complete media vs cholesterol-free media + simvastatin (0.04 μM), […]
# [25] = NCI-H292 cells in cholesterol-free media without statin
# [26] = NCI-H292 cells in complete media
# [27] = complete vs cholesterol-free media, greater than 0 enhanced anti-cancer activity, about 0 neutral, below 0 antagonists
# [28] = NCI-H292 cells, FDA drug library screen, cholesterol-free media without statin
# [29] = Complete minus Cholesterol-free, greater than 0 enhanced anti-cancer activity, about 0 neutral, below 0 antagonists
# [30] = NCI-H292 cells, drug in complete media
# [31] = NCI-H292 cells, drug in cholesterol-free media with simvastatin 0.04 μM
# [32] = Complete minus Cholesterol-free, greater than 0 enhanced anti-cancer activity, about 0 neutral, below 0 antagonist
substance,measurement,setting,value
(S)-Timolol (Maleate),Difference,[1]; [3],−0.04
same,Cholesterol-free,[1]; [4],1.235
same,Complete,[1]; [5],1.191
same,Cholesterol-free media + simvastatin (0.04 μM),[2]; [6],1.237
same,Complete Media,[2]; [7],1.285
same,Difference,[2]; [8],0.05
(−)-Huperzine A,Difference,[1]; [9],0.00
same,Cholesterol-free,[1]; [4],1.621
same,Complete,[1]; [5],1.617
same,Cholesterol-free media + simvastatin (0.04 μM),[2]; [10],1.198
same,Complete Media,[2]; [11],1.208
same,Difference,[2]; [12],0.01
(−)-Limonene,Cholesterol-free,[1]; [4],1.299
same,Complete,[1]; [5],1.515
same,Difference,[1]; [13],0.22
same,Complete Media,[2]; [14],1.422
same,Difference,[2]; [8],0.38
(−)-Sparteine (sulfate pentahydrate),Cholesterol-free,[1]; [15],1.28
same,Complete,"[1]; NCI-H292 cells, complete media",0.8579
same,Difference,[1]; [16],−0.42
same,Cholesterol-free media + simvastatin (0.04 μM),[2]; [17],0.83
same,Complete Media,[2]; [18],0.9345
same,Difference,[2]; [19],0.10
Abemaciclib (methanesulfonate),Difference,[1]; [3],−0.03
same,Cholesterol-free,[1]; [4],0.6853
same,Complete,[1]; [5],0.6534
same,Cholesterol-free media + simvastatin (0.04 μM),[2]; [20],0.9262
same,Complete Media,[2]; [21],0.6131
same,Difference,[2]; [22],−0.31
Acetylspiramycin,Difference,[1]; [9],−0.20
same,Cholesterol-free,[1]; [15],1.42
same,Complete,"[1]; NCI-H292 cells, complete media",1.224
same,Cholesterol-free media + simvastatin (0.04 μM),[2]; [23],1.237
same,Complete Media,[2]; [14],1.1
same,Difference,[2]; [24],−0.14
Adenine (hemisulfate),Cholesterol-free,[1],1.657
same,Complete,[1],0.9172
same,Difference,[1],−0.74
same,Cholesterol-free media + simvastatin (0.04 μM),[2],1.503
same,Complete Media,[2],1.604
same,Difference,[2],0.10
Afatinib (dimaleate),Difference,[1]; [3],0.03
same,Cholesterol-free,[1]; [4],0.07869
same,Complete,[1]; [5],0.1056
same,Cholesterol-free media + simvastatin (0.04 μM),[2]; [23],0.4722
same,Complete Media,[2]; [14],0.3193
same,Difference,[2]; [22],−0.15
Alarelin (Acetate),Difference,[1]; [9],−0.71
same,Cholesterol-free,[1]; [25],2.133
same,Complete,[1]; [26],1.426
same,Cholesterol-free media + simvastatin (0.04 μM),[2]; [10],0.8515
same,Complete Media,[2]; [11],0.85
same,Difference,[2]; [12],0.00
Alimemazine hemitartrate,Difference,[1]; [3],0.05
same,Cholesterol-free,[1]; [4],1.186
same,Complete,[1]; [5],1.239
same,Cholesterol-free media + simvastatin (0.04 μM),[2]; [23],0.9971
same,Complete Media,[2]; [14],1.335
same,Difference,[2]; [8],0.34
Aliskiren (hemifumarate),Cholesterol-free,[1]; [15],1.354
same,Complete,"[1]; NCI-H292 cells, complete media",0.9547
same,Difference,[1]; [27],−0.40
same,Cholesterol-free media + simvastatin (0.04 μM),[2]; [6],0.7275
same,Complete Media,[2]; [7],0.8337
same,Difference,[2]; [8],0.11
Almotriptan (malate),Difference,[1]; [9],−0.08
same,Cholesterol-free,[1]; [28],0.8422
same,Complete,[1]; [14],0.7605
same,Cholesterol-free media + simvastatin (0.04 μM),[2]; [20],1.642
same,Difference,[2]; [24],−0.54
Alverine (citrate),Difference,[1]; [29],−0.59
same,Cholesterol-free,[1]; [25],1.703
same,Cholesterol-free media + simvastatin (0.04 μM),[2]; [23],0.4761
same,Complete Media,[2]; [14],1.128
same,Difference,[2]; [8],0.65
Amlodipine (besylate),Cholesterol-free,[1],1.359
same,Difference,[1],−0.33
same,Cholesterol-free media + simvastatin (0.04 μM),[2],1.186
same,Difference,[2],−0.19
Amlodipine (maleate),Cholesterol-free,[1],1.127
same,Complete,[1],0.9069
same,Difference,[1],−0.22
same,Cholesterol-free media + simvastatin (0.04 μM),[2],1.087
same,Complete Media,[2],0.7885
same,Difference,[2],−0.30
"Angiotensin II 5-valine (DRVYVHPF; Angiotensin-2; UniProt P01019 25-32, looked up, variant I5V)",Cholesterol-free,[1]; [4],0.8655
same,Complete,[1]; [5],1.09
same,Difference,[1]; [16],0.22
same,Cholesterol-free media + simvastatin (0.04 μM),[2]; [23],2.07
same,Difference,[2]; [12],−0.98
"Angiotensin II human (acetate) (DRVYIHPF; also: acetate salt; UniProt P01019 25-32, looked up)",Difference,[1]; [9],−0.23
same,Cholesterol-free,[1]; [15],0.9412
same,Complete,"[1]; NCI-H292 cells, complete media",0.7158
same,Complete Media,[2]; [14],1.355
same,Difference,[2]; [19],0.21
"Angiotensin III (TFA) (RVYIHPF; also: TFA salt; UniProt P01019 26-32, looked up)",Cholesterol-free,[1]; [15],1.338
same,Complete,"[1]; NCI-H292 cells, complete media",0.9878
same,Difference,[1]; [16],−0.35
same,Complete Media,[2]; [30],0.8125
same,Difference,[2]; [24],−0.20
Aprotinin,Difference,[1]; [9],−0.21
same,Cholesterol-free,[1]; [15],0.7012
same,Complete,"[1]; NCI-H292 cells, complete media",0.4863
same,Cholesterol-free media + simvastatin (0.04 μM),[2]; [10],0.8532
same,Complete Media,[2]; [11],0.8102
same,Difference,[2]; [12],−0.04
"Argipressin (CYFQNCPRG; not fully specified (C-terminus, bridges); cysteine pairing not given here; UniProt P01185 20-28, looked up)",Difference,[1]; [9],−0.56
same,Cholesterol-free,[1]; [25],1.358
same,Complete,[1]; [26],0.7951
same,Cholesterol-free media + simvastatin (0.04 μM),[2]; [20],1.506
same,Complete Media,[2]; [21],1.167
same,Difference,[2]; [24],−0.34
Asenapine (maleate),Difference,[1]; [29],−0.56
same,Cholesterol-free,[1]; [25],1.49
same,Complete,[1]; [26],0.9322
same,Cholesterol-free media + simvastatin (0.04 μM),[2]; [31],1.309
same,Complete Media,[2]; [30],1.135
same,Difference,[2]; [22],−0.17
Atazanavir (sulfate),Difference,[1]; [32],−0.18
same,Cholesterol-free,[1]; [28],1.207
same,Complete,[1]; [14],1.022
same,Cholesterol-free media + simvastatin (0.04 μM),[2]; [23],1.26
same,Complete Media,[2]; [14],1.128
same,Difference,[2]; [22],−0.13
Atosiban (acetate),Cholesterol-free,[1]; [15],1.199
same,Complete,"[1]; NCI-H292 cells, complete media",0.8162
same,Difference,[1]; [16],−0.38
same,Cholesterol-free media + simvastatin (0.04 μM),[2]; [20],1.587
same,Difference,[2]; [24],−0.52
Atracurium (besylate),Difference,[1]; [29],−0.49
same,Cholesterol-free,[1]; [25],1.419
same,Complete,[1]; [26],0.9276
same,Cholesterol-free media + simvastatin (0.04 μM),[2]; [31],1.369
same,Difference,[2]; [22],−0.26
Azatadine (dimaleate),Difference,[1]; [32],−0.16
same,Cholesterol-free,[1]; [28],1.286
same,Complete,[1]; [14],1.13
same,Cholesterol-free media + simvastatin (0.04 μM),[2]; [10],1.086
same,Complete Media,[2]; [11],1.047
same,Difference,"[2]; complete media minus cholesterol-free media + simvastatin (0.04 μM), >0 enhanced anti-cancer activity, about 0 neutral, <0 antagonist",−0.04
Baricitinib (phosphate),Difference,[1]; [9],−0.20
same,Cholesterol-free,[1]; [15],0.7762
same,Complete,"[1]; NCI-H292 cells, complete media",0.5811
same,Cholesterol-free media + simvastatin (0.04 μM),[2]; [23],0.6632
same,Complete Media,[2]; [14],0.5619
same,Difference,[2]; [24],−0.10
Bazedoxifene (acetate),Difference,[1]; [3],−0.29
same,Complete,"[1]; NCI-H292 cells, complete media",0.8636
same,Cholesterol-free media + simvastatin (0.04 μM),[2]; [23],0.4477
same,Complete Media,[2]; [14],0.8485
same,Difference,[2]; [8],0.40
Bedaquiline (fumarate),Cholesterol-free,[1]; [15],1.587
same,Complete,"[1]; NCI-H292 cells, complete media",1.119
same,Difference,[1]; [27],−0.47
same,Cholesterol-free media + simvastatin (0.04 μM),[2]; [6],0.9095
same,Complete Media,[2]; [7],0.9785
same,Difference,[2]; [8],0.07
Benztropine (mesylate),Cholesterol-free,[1],0.859
same,Complete,[1],0.7883
same,Difference,[1],−0.07
same,Cholesterol-free media + simvastatin (0.04 μM),[2],0.7872
same,Complete Media,[2],0.8586
same,Difference,[2],0.07
Bephenium (hydroxynaphthoate),Complete,"[1]; NCI-H292 cells, complete media",0.7234
same,Difference,[1]; [27],−0.43
same,Cholesterol-free media + simvastatin (0.04 μM),[2]; [31],1.634
same,Complete Media,[2]; [30],1.472
same,Difference,[2]; [22],−0.16
Bismuth subgallate,Difference,[1]; [9],−0.19
same,Cholesterol-free,[1]; [15],1.126
same,Cholesterol-free media + simvastatin (0.04 μM),[2]; [10],1.033
same,Complete Media,[2]; [11],0.9832
same,Difference,[2]; [12],−0.05
Bivalirudin (TFA),Cholesterol-free,[1]; [4],1.02
same,Complete,[1]; [5],1.118
same,Difference,[1]; [16],0.10
same,Complete Media,[2]; [14],0.9368
same,Difference,[2]; [24],−0.13
Bleomycin (hydrochloride),Cholesterol-free,[1]; [4],0.4328
same,Complete,[1]; [5],0.5195
same,Difference,[1]; [16],0.09
same,Cholesterol-free media + simvastatin (0.04 μM),[2]; [23],0.184
same,Complete Media,[2]; [14],0.1023
same,Difference,[2]; [24],−0.08
Bleomycin (sulfate),Difference,[1]; [9],−0.05
same,Cholesterol-free,[1]; [4],0.05041
same,Complete,[1]; [5],−0.00442
same,Cholesterol-free media + simvastatin (0.04 μM),[2]; [17],0.1778
same,Complete Media,[2]; [18],0.2205
same,Difference,[2]; [19],0.04
Bremelanotide (Acetate),Difference,[1]; [9],−0.90
same,Cholesterol-free,[1]; [25],1.638
same,Complete,[1]; [26],0.7395
same,Cholesterol-free media + simvastatin (0.04 μM),[2]; [20],1.644
same,Complete Media,[2]; [21],1.021
same,Difference,[2]; [24],−0.62
Bretylium (tosylate),Cholesterol-free,[1]; [4],0.5154
same,Complete,[1]; [5],0.751
same,Difference,[1]; [13],0.24
same,Complete Media,[2]; [21],0.8163
same,Difference,[2]; [22],−0.40
